Laboratory results as given in patent publication US10722501B2 (BAYER AKTIENGESELLSCHAFT, priority 2016, dated 2020).

target: T1, recombinant full-length human prolyl endopeptidase (PREP) (Homo sapiens, UniProt P48147); experiment: Biochemical human prolyl endopeptidase (PREP) assay with fluorescently labelled substrate; conditions: substrate Z-Gly-Pro-AMC 50 μM, 32° C., 60 min; some as mean values from multiple independent determinations
T1 construct: To recombinant full-length human prolyl endopeptidase (PREP, R&D-Systems, 4308-SE); purchased R&D-Systems 4308-SE
T1 sequence (P48147 1-710): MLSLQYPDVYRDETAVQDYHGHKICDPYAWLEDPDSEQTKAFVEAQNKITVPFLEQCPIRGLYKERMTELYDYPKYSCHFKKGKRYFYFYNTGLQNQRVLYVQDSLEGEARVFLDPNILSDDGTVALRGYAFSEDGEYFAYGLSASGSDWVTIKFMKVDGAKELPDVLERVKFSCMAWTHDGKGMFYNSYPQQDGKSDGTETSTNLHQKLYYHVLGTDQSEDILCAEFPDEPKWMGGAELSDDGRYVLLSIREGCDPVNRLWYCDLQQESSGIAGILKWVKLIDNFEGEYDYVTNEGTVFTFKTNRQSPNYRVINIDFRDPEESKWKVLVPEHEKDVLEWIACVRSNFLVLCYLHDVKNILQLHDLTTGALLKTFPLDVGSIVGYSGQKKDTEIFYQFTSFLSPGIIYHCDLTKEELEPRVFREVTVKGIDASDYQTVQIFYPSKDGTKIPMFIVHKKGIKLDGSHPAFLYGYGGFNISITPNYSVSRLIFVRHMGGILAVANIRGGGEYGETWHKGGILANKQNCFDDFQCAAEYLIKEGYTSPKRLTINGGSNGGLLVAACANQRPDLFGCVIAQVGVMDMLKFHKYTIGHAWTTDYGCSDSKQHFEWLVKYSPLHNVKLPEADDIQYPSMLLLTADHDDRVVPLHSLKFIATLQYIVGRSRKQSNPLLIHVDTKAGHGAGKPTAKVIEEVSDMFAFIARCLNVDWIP
Procedure, shortened: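 Initial rates of fluorescence increase from 50 μM Z-Gly-Pro-AMC cleavage (ex 360/em 465 nm, 60 min, 32° C) give percent PREP activity versus no-compound control, and IC50 is interpolated. Enzyme used at 0.4 nM (final, example) in Tris pH 7.5 with EDTA, GSH, BSA and Brij-35; compounds span 1 nM to 30 μM.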

Row | Structure (SMILES) | IC50 [nM]
1 | N#Cc1ccc(Cn2nc3n(c2=O)C(C(=O)N2CCCC2)CCC3)cn1 (racemic) [Example 35, 5-{[(5RS)-3-Oxo-5-(pyrrolidin-1-ylcarbonyl)-5,6,7,8-tetrahydro[1,2,4]triazolo[4,3-a]pyridin-2(3H)-yl]methyl}pyridine-2-carbonitrile] | 15
2 | O=C(C1CC(C(F)(F)F)Cc2nn(Cc3ccc(Cl)cn3)c(=O)n21)N1CCC(F)(F)C1 (racemic) [Example 566, (5RS,7RS)-2-[(5-Chloropyridin-2-yl)methyl]-5-[(3,3-difluoropyrrolidin-1-yl)carbonyl]-7-(trifluoromethyl)-5,6,7,8-tetrahydro[1,2,4]triazolo[4,3-a]pyridin-3(2H)-one] | 4.1
3 | O=C(C1CC(C(F)(F)F)Cc2nn(Cc3ccc(Cl)nc3)c(=O)n21)N1CCCC1 (single isomer, unassigned) [Example 228, (5RS,7RS)-2-[(6-Chloropyridin-3-yl)methyl]-5-(pyrrolidin-1-ylcarbonyl)-7-(trifluoromethyl)-5,6,7,8-tetrahydro[1,2,4]triazolo[4,3-a]pyridin-3(2H)-one] | 2.2
4 | O=C(C1C(C(F)(F)F)CCc2nn(Cc3ncc(Cl)cc3F)c(=O)n21)N1CCC(F)(F)C1 (racemic) [Example 296, (5RS,6RS)-2-[(5-Chloro-3-fluoropyridin-2-yl)methyl]-5-[(3,3-difluoropyrrolidin-1-yl)carbonyl]-6-(trifluoromethyl)-5,6,7,8-tetrahydro[1,2,4]triazolo[4,3-a]pyridin-3(2H)-one] | 180
5 | O=C([C@@H]1CCCc2nn(Cc3ncc(Cl)cc3F)c(=O)n21)N1CC(F)(F)C1 [Example 409, (5S)-2-[(5-Chloro-3-fluoropyridin-2-yl)methyl]-5-[(3,3-difluoroazetidin-1-yl)carbonyl]-5,6,7,8-tetrahydro[1,2,4]triazolo[4,3-a]pyridin-3(2H)-one] | 14
6 | O=C(C1CC(C(F)(F)F)Cc2nn(Cc3ccc(Cl)nc3)c(=O)n21)N1CC(F)C1 (single isomer, unassigned) [Example 239, (5RS,7RS)-2-[(6-Chloropyridin-3-yl)methyl]-5-[(3-fluoroazetidin-1-yl)carbonyl]-7-(trifluoromethyl)-5,6,7,8-tetrahydro[1,2,4]triazolo[4,3-a]pyridin-3(2H)-one] | 11.2
7 | O=C(C1CC(C(F)(F)F)Cc2nn(Cc3ccc(C(F)(F)F)nc3)c(=O)n21)N1CCC(F)(F)C1 (racemic) [Example 312, (5RS,7RS)-5-[(3,3-Difluoropyrrolidin-1-yl)carbonyl]-7-(trifluoromethyl)-2-{[6-(trifluoromethyl)pyridin-3-yl]methyl}-5,6,7,8-tetrahydro[1,2,4]triazolo[4,3-a]pyridin-3(2H)-one] | 8.9
8 | O=C([C@@H]1CCCc2nn(Cc3ccc(C(F)(F)F)nc3)c(=O)n21)N1CC(F)C(F)C1 (single isomer, unassigned) [Example 554] | 10
9 | O=C([C@@H]1CCCc2nn(Cc3ccc(Cl)cn3)c(=O)n21)N1CC(F)C1 [Example 379, (5S)-2-[(5-Chloropyridin-2-yl)methyl]-5-[(3-fluoroazetidin-1-yl)carbonyl]-5,6,7,8-tetrahydro[1,2,4]triazolo[4,3-a]pyridin-3(2H)-one] | 2.5

Further molecules by falling IC50, results first:

Row | IC50 [nM] | Structure (SMILES)
10 | 2.2 | O=C(C1CCCc2nn(Cc3cccc(F)c3)c(=O)n21)N1CCCC1 (racemic) [Example 16, (5RS)-2-(3-Fluorobenzyl)-5-(pyrrolidin-1-ylcarbonyl)-5,6,7,8-tetrahydro[1,2,4]triazolo[4,3-a]pyridin-3(2H)-one]
11 | 2 | O=C([C@@H]1CCCc2nn(Cc3cnc(C(F)(F)F)c(Cl)c3)c(=O)n21)N1CCC(F)(F)C1 [Example 441, (5S)-2-{[5-Chloro-6-(trifluoromethyl)pyridin-3-yl]methyl}-5-[(3,3-difluoropyrrolidin-1-yl)carbonyl]-5,6,7,8-tetrahydro[1,2,4]triazolo[4,3-a]pyridin-3(2H)-one]
12 | 1.5 | COc1ccc(CCn2nc3n(c2=O)[C@H](C(=O)N2C[C@@H](F)[C@@H](F)C2)CCC3)cc1 [Example 522, (5S)-5-{[(3R,4S)-3,4-Difluoropyrrolidin-1-yl]carbonyl}-2-[2-(4-methoxyphenyl)ethyl]-5,6,7,8-tetrahydro[1,2,4]triazolo[4,3-a]pyridin-3(2H)-one]
13 | 1.4 | O=C([C@@H]1CCCc2nn(Cc3ccc(Cl)cn3)c(=O)n21)N1CCSC1 [Example 505, (5S)-2-[(5-Chloropyridin-2-yl)methyl]-5-(1,3-thiazolidin-3-ylcarbonyl)-5,6,7,8-tetrahydro[1,2,4]triazolo[4,3-a]pyridin-3(2H)-one]
14 | 1.4 | O=C(C1CC(C(F)(F)F)Cc2nn(Cc3ccc(Cl)cn3)c(=O)n21)N1CC[C@H](F)C1 (mixture of isomers) [Example 314, (5RS,7RS)-2-[(5-Chloropyridin-2-yl)methyl]-5-{[(3S)-3-fluoropyrrolidin-1-yl]carbonyl}-7-(trifluoromethyl)-5,6,7,8-tetrahydro[1,2,4]triazolo[4,3-a]pyridin-3(2H)-one]
15 | 1.4 | O=C([C@@H]1CCc2nn(Cc3cccc(C(F)(F)F)c3)c(=O)n21)N1CCCC1 [Example 55, (5S)-5-(Pyrrolidin-1-ylcarbonyl)-2-[3-(trifluoromethyl)benzyl]-2,5,6,7-tetrahydro-3H-pyrrolo[2,1-c][1,2,4]triazol-3-one]
16 | 1.4 | O=C([C@@H]1CCCc2nn(Cc3ncccc3Cl)c(=O)n21)N1CC[C@H](F)C1 [Example 393, (5S)-2-[(3-Chloropyridin-2-yl)methyl]-5-{[(3S)-3-fluoropyrrolidin-1-yl]carbonyl}-5,6,7,8-tetrahydro[1,2,4]triazolo[4,3-a]pyridin-3(2H)-one]
17 | 1.3 | O=C(C1C(C(F)(F)F)CCc2nn(Cc3ccc(C(F)(F)F)nc3)c(=O)n21)N1CC[C@H](F)C1 (single isomer, unassigned) [Example 285]
18 | 1.17 | O=C(C1CCCc2nn(Cc3ccc4c(c3)CCCC4)c(=O)n21)N1CCC(F)(F)C1 (racemic) [Example 87, (5RS)-5-[(3,3-Difluoropyrrolidin-1-yl)carbonyl]-2-(5,6,7,8-tetrahydronaphthalen-2-ylmethyl)-5,6,7,8-tetrahydro[1,2,4]triazolo[4,3-a]pyridin-3(2H)-one]
19 | 0.71 | O=C(C1CCCc2nn(Cc3ccc(Cl)s3)c(=O)n21)N1CCCC1 (racemic) [Example 53, (5RS)-2-[(5-Chloro-2-thienyl)methyl]-5-(pyrrolidin-1-ylcarbonyl)-5,6,7,8-tetrahydro[1,2,4]triazolo[4,3-a]pyridin-3(2H)-one]
20 | 0.485 | O=C([C@@H]1CCC(O)c2nn(Cc3cncc(Cl)c3)c(=O)n21)N1CC[C@H](F)C1 (mixture of isomers) [Example 279, (5S,8RS)-2-[(5-Chloropyridin-3-yl)methyl]-5-{[(3S)-3-fluoropyrrolidin-1-yl]carbonyl}-8-hydroxy-5,6,7,8-tetrahydro[1,2,4]triazolo[4,3-a]pyridin-3(2H)-one]
21 | 0.225 | O=C([C@@H]1CCCc2nn(Cc3ccc(Cl)c(F)c3)c(=O)n21)N1CC(F)C1 [Example 463, (5S)-2-(4-Chloro-3-fluorobenzyl)-5-[(3-fluoroazetidin-1-yl)carbonyl]-5,6,7,8-tetrahydro[1,2,4]triazolo[4,3-a]pyridin-3(2H)-one]
